Test results taken from US20140023611A1 (priority 2010, published 2014).

Key:
[1] = target: T1, rat NaP2b (SLC34A2) (Rattus norvegicus, UniProt Q9JJ09); test: Inhibition of NaP2b-mediated Pi (33P) uptake in transfected HEK293 cells, rat NaP2b; type: cell-based; details: 33P Pi uptake, 0.1 mM phosphate, value given as pIC50 range
T1 construct: host or cells: HEK293
T1 sequence (Q9JJ09 1-695): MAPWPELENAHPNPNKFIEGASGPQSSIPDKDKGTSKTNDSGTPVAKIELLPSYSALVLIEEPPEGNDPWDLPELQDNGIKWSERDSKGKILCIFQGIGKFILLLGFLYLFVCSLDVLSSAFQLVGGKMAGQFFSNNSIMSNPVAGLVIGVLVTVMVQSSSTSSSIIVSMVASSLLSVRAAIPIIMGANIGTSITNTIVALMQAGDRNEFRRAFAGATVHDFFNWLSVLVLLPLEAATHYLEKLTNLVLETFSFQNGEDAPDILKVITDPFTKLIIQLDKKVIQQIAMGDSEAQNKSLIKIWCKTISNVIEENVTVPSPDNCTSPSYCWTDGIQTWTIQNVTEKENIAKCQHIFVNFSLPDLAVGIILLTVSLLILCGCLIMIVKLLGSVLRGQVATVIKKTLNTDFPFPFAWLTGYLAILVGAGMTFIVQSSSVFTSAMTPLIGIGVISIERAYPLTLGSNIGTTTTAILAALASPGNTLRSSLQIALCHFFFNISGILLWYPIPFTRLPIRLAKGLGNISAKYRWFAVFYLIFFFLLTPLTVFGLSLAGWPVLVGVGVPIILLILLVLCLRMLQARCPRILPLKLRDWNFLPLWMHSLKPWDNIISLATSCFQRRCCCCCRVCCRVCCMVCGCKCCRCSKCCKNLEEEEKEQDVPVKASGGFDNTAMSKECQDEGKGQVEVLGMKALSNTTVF
How it was run: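 HEK293 cells were transiently transfected with NaP2b cDNA using Lipofectamine and grown near confluence. Compounds were tested at twelve concentrations from 0.1 nM to 30 uM in duplicate, and 33P-phosphate uptake was counted by scintillation after lysis. Results are expressed as pIC50.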

[2] = target: T2, human NaP2b (SLC34A2) (Homo sapiens, UniProt O95436); test: Inhibition of NaP2b-mediated Pi (33P) uptake in transfected HEK293 cells, human NaP2b; type: cell-based; details: for IC50: read-out: pIC50 range for human NaP2b (converted)
T2 construct: host or cells: HEK293
T2 sequence (O95436 1-690): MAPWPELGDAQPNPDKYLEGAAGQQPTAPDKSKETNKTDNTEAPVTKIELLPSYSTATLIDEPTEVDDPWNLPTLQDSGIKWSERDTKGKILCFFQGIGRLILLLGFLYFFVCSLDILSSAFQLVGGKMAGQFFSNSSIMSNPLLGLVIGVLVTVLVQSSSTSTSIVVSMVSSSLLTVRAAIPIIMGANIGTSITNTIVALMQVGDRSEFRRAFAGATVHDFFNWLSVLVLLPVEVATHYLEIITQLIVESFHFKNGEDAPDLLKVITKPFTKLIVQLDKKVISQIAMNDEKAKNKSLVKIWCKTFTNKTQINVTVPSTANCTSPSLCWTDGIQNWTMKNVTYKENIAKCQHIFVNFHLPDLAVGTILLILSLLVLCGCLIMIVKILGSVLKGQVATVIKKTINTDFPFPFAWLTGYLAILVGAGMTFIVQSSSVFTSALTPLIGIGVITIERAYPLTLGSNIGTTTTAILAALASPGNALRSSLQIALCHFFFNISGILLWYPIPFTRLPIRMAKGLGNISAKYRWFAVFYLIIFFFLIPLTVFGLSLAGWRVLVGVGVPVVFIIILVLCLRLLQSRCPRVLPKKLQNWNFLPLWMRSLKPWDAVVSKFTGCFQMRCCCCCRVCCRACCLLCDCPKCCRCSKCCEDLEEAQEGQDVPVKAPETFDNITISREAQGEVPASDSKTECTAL
How it was run: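 HEK293 cells transiently transfected with human NaP2b (Thr inserted after residue 37, N39D), endogenous PiT transport pharmacologically silenced. Sodium or choline buffer, pH 7.4, with 100 uM KH2PO4, 33P orthophosphate and compound (0.1 nM–30 uM, twelve concentrations, duplicate). 3-30 min at room temperature, scintillation counting, pIC50 derived.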

[3] = Stability of compounds in simulated gastric fluid (SGF); type: in vitro ADME; details: simulated gastric fluid (3 mg/mL pepsin), incubation time 6 hr, relative to t=0
How it was run: (§1)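 Compounds at […] were incubated 3 or 6 hr in USP simulated gastric fluid with 3 mg/mL pepsin or simulated intestinal fluid with 3 mg/mL pancreatin. Remaining compound was quantified by HPLC-UV or HPLC-MS peak area % and reported as percent of the t=0 level in the same medium.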

[4] = Stability of compounds in simulated intestinal fluid (SIF); type: in vitro ADME; details: simulated intestinal fluid (3 mg/mL pancreatin), incubation time 6 hr, relative to t=0
How it was run: as §1

[5] = Determination of compound Cmax and AUC after oral gavage (plasma LC-MS/MS); type: in vivo, Sprague-Dawley rats; details: Sprague-Dawley, rat, plasma, po, Structure (I) examples, Table 15, actual oral dose 3-15 mg/kg, plasma 0.5-4 h
How it was run: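 Sprague-Dawley rats dosed by oral gavage at nominal 2.5 or 10 mg/kg; blood drawn at 0.5, 1, 2 and 4 h into K2EDTA. Plasma protein-precipitated with acetonitrile plus internal standard and analysed by LC-MS/MS against a plasma standard curve to derive Cmax and AUC.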

pIC50 range for rat Nap2b [1] | pIC50 range for human NaP2b ([2]; 33P Pi uptake, transfected HEK293 cells, 0.1 mM phosphate, value given as pIC50 range) | % remaining, SGF [3] | % remaining, SIF [4] | IC50 [1] [nM] | IC50 [2] [nM] | Compound | AUC [5] [ng·h/mL] | Cmax [5] [ng/mL]
 |  | >80% | >80% | 1000 to 7940 | 1000 to 7940 | CCCN(CCC)c1ccc(NC(=O)c2cccc(C(=O)N(C)CCOCCOCCOCCC(=O)O)c2)c(-c2cc(C(=O)NCc3cccc(C(F)(F)F)c3)ccn2)c1 [Example 117] |  | 
 |  | >80% | 60-80% | < 1000 | < 1000 | CCN(CC)c1ccc(NC(=O)c2cccc(COCCOCCOCCOCCOCCOCCOC(=O)NCCN3CCOCC3)c2)c(-c2cc(C(=O)NCc3cccc(C(F)(F)F)c3)ccn2)c1 [Example 169, 1-(3-(4-(diethylamino)-2-(4-(3-(trifluoromethyl)benzylcarbamoyl)pyridin-2-yl)phenylcarbamoyl)phenyl)-2,5,8,11,14,17-hexaoxanonadecan-19-yl 2-morpholinoethylcarbamate] |  | 
 |  | >80% | 60-80% | 1000 to 7940 | < 1000 | CCN(CC)c1ccc(NC(=O)c2cccc(COCCOCCOCCOCCOCCOCCOC(=O)N(C)CCN3CCOCC3)c2)c(-c2cc(C(=O)NCc3cccc(C(F)(F)F)c3)ccn2)c1 [Example 170, 1-(3-(4-(diethylamino)-2-(4-(3-(trifluoromethyl)benzylcarbamoyl)pyridin-2-yl)phenylcarbamoyl)phenyl)-2,5,8,11,14,17-hexaoxanonadecan-19-yl methyl(2-morpholinoethyl)carbamate] |  | 
 |  | >80% | >80% | 1000 to 7940 | < 1000 | CCN(CC)c1ccc(NC(=O)c2cccc(COCCOCCOCCOCCOCCOCCOC(=O)N(CCO)CCO)c2)c(-c2cc(C(=O)NCc3cccc(C(F)(F)F)c3)ccn2)c1 [Example 172, 1-(3-(4-(diethylamino)-2-(4-(3-(trifluoromethyl)benzylcarbamoyl)pyridin-2-yl)phenylcarbamoyl)phenyl)-2,5,8,11,14,17-hexaoxanonadecan-19-yl bis(2-hydroxyethyl)carbamate] |  | 
 |  | >80% | >80% | 1000 to 7940 |  | COCCOCCOCCOCCOCCOCCOCCN(C)CCN(C)C(=O)c1cccc(C(=O)Nc2ccc(N3CCCCC3)cc2-c2cc(C(=O)N[C@H]3CCCc4ccccc43)ccn2)c1 [Example 333, (S)—N^1-Methyl-N^1-(23-methyl-2,5,8,11,14,17,20-heptaoxa-23-azapentacosan-25-yl)-N3-(4-(piperidin-1-yl)-2-(4-(1,2,3,4-tetrahydronaphthalen-1-ylcarbamoyl)pyridin-2-yl)phenyl)isophthalamide] | < 50 | < 30

Further lines, the compound ahead of its results:

Compound | pIC50 range for rat Nap2b [1] | pIC50 range for human NaP2b ([2]; 33P Pi uptake, transfected HEK293 cells, 0.1 mM phosphate, value given as pIC50 range) | % remaining, SGF [3] | % remaining, SIF [4] | IC50 [1] [nM] | IC50 [2] [nM] | AUC [5] [ng·h/mL] | Cmax [5] [ng/mL]
1-(3-(4-(diethylamino)-2-(4-(3-(trifluoromethyl)benzylcarbamoyl)pyridin-2-yl)phenylcarbamoyl)phenyl)-2,5,8,11,14,17-hexaoxanonadecan-19-yl 2,5,8,11,14,17,20-heptaoxadocosan-22-ylcarbamate [Example 174] | 5.1-6.0 | >6.0 | >80% | >80% |  |  |  | 
CCN(CC)c1ccc(NC(=O)c2cccc(COCCOCCOCCOCCOCCOCCOC(=O)N3CCC(CCOCCO)CC3)c2)c(-c2cc(C(=O)NCc3cccc(C(F)(F)F)c3)ccn2)c1 [Example 171, 1-(3-(4-(diethylamino)-2-(4-(3-(trifluoromethyl)benzylcarbamoyl)pyridin-2-yl)phenylcarbamoyl)phenyl)-2,5,8,11,14,17-hexaoxanonadecan-19-yl 4-(2-(2-hydroxyethoxy)ethyl)piperidine-1-carboxylate] |  |  | >80% | >80% | 1000 to 7940 | < 1000 |  | 
O=C(O)CCOCCOCCOCCOCCCc1cccc(C(=O)Nc2ccc(OC3CCC3)cc2-c2cc(C(=O)N[C@H]3CCCc4ccccc43)ccn2)c1 [Example 285, (S)-16-(3-((4-cyclobutoxy-2-(4-((1,2,3,4-tetrahydronaphthalen-1-yl)carbamoyl)pyridin-2-yl)phenyl)carbamoyl)phenyl)-4,7,10,13-tetraoxahexadecan-1-oic acid] |  |  | 60-80% | >80% | < 1000 |  | < 50 | < 30
